Reference: ChEMBL document CHEMBL3885861, “Open TG-GATES”

Organism: Rattus norvegicus
Assay: Open TG-GATES - Regimen: Single
Assay type: toxicity, organism-based, Sprague-Dawley
Set-up: regimen Single, gender Male, age 6 weeks
Conditions: in vivo, po, 0 mg/kg, route gavage, dose level Control; for APTT / Bas / Eos / Fbg / Hb / Ht / Lym / MCH / MCHC / MCV / Mono / Neu / PT / Plat / RBC / Ret / WBC: tissue Blood; for KIDNEY_TOTAL: tissue Kidney; for LIVER: tissue Liver; for A/G / ALP / ALT / AST / BUN / CRE / Ca / Cl / DBIL / GLC / IP / K / LDH / Na / PL / RALB / TBIL / TC / TG / TP / gamma-GTP: tissue Plasma

## CN(CCOc1ccc(CC2SC(=O)NC2=O)cc1)c1ccccn1.O=C(O)/C=C\C(=O)O (centres undefined) [ROSIGLITAZONE MALEATE]
3 h
  TERMINAL_BW: 206.3 g
  APTT: 15.8 s
  Bas: 0%
  Eos: 0.6%
  Fbg: 216.8 mg/dL
  Hb: 13.1 g/dL
  Ht: 39.7%
  Lym: 75.6%
  MCH: 21.4 pg
  MCHC: 33.1%
  MCV: 64.7 fL
  Mono: 9.2%
  Neu: 14.4%
  PT: 12 s
  Plat: 123.6 x10_4/uL
  RBC: 614 x10_4/ul
  Ret: 8.6%
  WBC: 110.6 x10_2/uL
  KIDNEY_TOTAL: 0.6 g
  LIVER: 9.7 g
  A/G: 2.3
  ALP: 1326.2 IU/L
  ALT: 36.6 IU/L
  AST: 71 IU/L
  BUN: 13 mg/dL
  CRE: 0.3 mg/dL
  Ca: 11.4 mg/dL
  Cl: 104.2 meq/L
  DBIL: 0.012 mg/dL
  GLC: 195.6 mg/dL
  IP: 8.6 mg/dL
  K: 4.4 meq/L
  LDH: 82 IU/L
  Na: 139.8 meq/L
  PL: 138.2 mg/dL
  RALB: 3.7 g/dL
  TBIL: 0.046 mg/dL
  TC: 76 mg/dL
  TG: 71.4 mg/dL
  TP: 5.4 g/dL
  gamma-GTP: 0.6 IU/L
6 h
  TERMINAL_BW: 205.9 g
  APTT: 15.9 s
  Bas: 0%
  Eos: 1.2%
  Fbg: 220.2 mg/dL
  Hb: 13.2 g/dL
  Ht: 40%
  Lym: 80.2%
  MCH: 21.6 pg
  MCHC: 32.9%
  MCV: 65.7 fL
  Mono: 4.4%
  Neu: 14.6%
  PT: 12.2 s
  Plat: 117 x10_4/uL
  RBC: 609.4 x10_4/ul
  Ret: 9.7%
  WBC: 92.8 x10_2/uL
  KIDNEY_TOTAL: 0.7 g
  LIVER: 9.7 g
  A/G: 2.3
  ALP: 1368.6 IU/L
  ALT: 35.6 IU/L
  AST: 66.6 IU/L
  BUN: 10.4 mg/dL
  CRE: 0.3 mg/dL
  Ca: 11.3 mg/dL
  Cl: 104.2 meq/L
  DBIL: 0.01 mg/dL
  GLC: 183.4 mg/dL
  IP: 8.9 mg/dL
  K: 4.4 meq/L
  LDH: 79.2 IU/L
  Na: 138.6 meq/L
  PL: 143.4 mg/dL
  RALB: 3.7 g/dL
  TBIL: 0.05 mg/dL
  TC: 83.6 mg/dL
  TG: 70.4 mg/dL
  TP: 5.3 g/dL
  gamma-GTP: 1 IU/L
9 h
  TERMINAL_BW: 204 g
  APTT: 15.7 s
  Bas: 0%
  Eos: 0.6%
  Fbg: 221.4 mg/dL
  Hb: 12.8 g/dL
  Ht: 39.1%
  Lym: 73.4%
  MCH: 21.6 pg
  MCHC: 32.9%
  MCV: 65.6 fL
  Mono: 7.8%
  Neu: 18.4%
  PT: 11.9 s
  Plat: 123 x10_4/uL
  RBC: 597 x10_4/ul
  Ret: 9%
  WBC: 93.6 x10_2/uL
  KIDNEY_TOTAL: 0.7 g
  LIVER: 8.8 g
  A/G: 2.4
  ALP: 1162.4 IU/L
  ALT: 34.2 IU/L
  AST: 68.8 IU/L
  BUN: 10.8 mg/dL
  CRE: 0.3 mg/dL
  Ca: 11 mg/dL
  Cl: 104.8 meq/L
  DBIL: 0.01 mg/dL
  GLC: 184 mg/dL
  IP: 10 mg/dL
  K: 4.5 meq/L
  LDH: 85 IU/L
  Na: 139.8 meq/L
  PL: 137.4 mg/dL
  RALB: 3.8 g/dL
  TBIL: 0.046 mg/dL
  TC: 87.6 mg/dL
  TG: 45.2 mg/dL
  TP: 5.4 g/dL
  gamma-GTP: 1 IU/L
24 h
  TERMINAL_BW: 219.8 g
  APTT: 16.5 s
  Bas: 0%
  Eos: 1%
  Fbg: 225 mg/dL
  Hb: 12.8 g/dL
  Ht: 38.9%
  Lym: 79.4%
  MCH: 21.5 pg
  MCHC: 32.8%
  MCV: 65.6 fL
  Mono: 5.2%
  Neu: 14.4%
  PT: 11.7 s
  Plat: 124.2 x10_4/uL
  RBC: 593 x10_4/ul
  Ret: 8%
  WBC: 92.8 x10_2/uL
  KIDNEY_TOTAL: 0.7 g
  LIVER: 10.7 g
  A/G: 2.3
  ALP: 1499.4 IU/L
  ALT: 38.4 IU/L
  AST: 66.4 IU/L
  BUN: 15.4 mg/dL
  CRE: 0.4 mg/dL
  Ca: 11.5 mg/dL
  Cl: 104 meq/L
  DBIL: 0.016 mg/dL
  GLC: 188.4 mg/dL
  IP: 7.7 mg/dL
  K: 4.4 meq/L
  LDH: 97 IU/L
  Na: 140.4 meq/L
  PL: 164.2 mg/dL
  RALB: 3.9 g/dL
  TBIL: 0.038 mg/dL
  TC: 94.4 mg/dL
  TG: 107 mg/dL
  TP: 5.6 g/dL
  gamma-GTP: 1 IU/L
